Data: patent publication US7488748B2, “3,6-Disubstituted azabicyclo hexane derivatives as muscarinic receptor antagonists” (Ranbaxy Laboratories Limited, priority 2003, dated 2009)

Assays:
M3 muscarinic receptor = molecular target: T1, M3 muscarinic receptor (Rattus norvegicus, UniProt P08483); experiment: Radioligand binding assay, [3H]-N-methylscopolamine, rat submandibular gland membranes; conditions: [3H]NMS, Ki by Cheng & Prusoff; for Ki: read-out: Receptor Binding Assay pKi M3 (converted)
T1 construct: from tissue; host or cells: rat submandibular gland membrane homogenate
Protocol: (§1) The affinity of test compounds for M2 and M3 muscarinic receptor subtypes was determined by [^3H]—N-methylscopolamine binding studies using rat heart and submandibular gland respectively as described by Moriya et al., (Life Sci., 1999,64(25):2351-2358) with minor modifications.
(§2) Membrane preparation: Submandibular glands and heart were isolated and placed in ice cold homogenizing buffer (HEPES 20 mM, 10 mM EDTA, pH 7.4) immediately after sacrifice. The tissues were homogenized in 10 volumes of homogenizing buffer and the homogenate was filtered through two layers of wet gauze and filtrate was centrifuged at 500 g for 10 min. The supernatant was subsequently centrifuged at 40,000 g for 20 min. The pellet thus obtained was resuspended in same volume of assay buffer (HEPES 20 mM, EDTA 5 mM, pH 7.4) and were stored at −70° C. until the time of assay.
(§3) Ligand binding assay The compounds were dissolved and diluted in DMSO. The membrane homogenates (150-250 μg protein) were incubated in 250 μl of assay buffer (HEPES 20 mM, pH 7.4) at 24-25° C. for 3 h. Non-specific binding was determined in the-presence of 1 μM atropine. The incubation was terminated by vacuum filtration over GF/B fiber filters(Wallac). The filters were then washed with ice cold 50 mM Tris HCl buffer (pH 7.4). The filter mats were dried and bound radioactivity retained on filters was counted. The IC50 & Kd were estimated by using the non-linear curve fitting program using G Pad Prism software. The value of inhibition constant Ki was calculated from competitive binding studies by using Cheng & Prusoff equation (Biochem Pharmacol, 1973,22: 3099-3108), Ki=IC50/(1+L/Kd), where L is the concentration of [^3H]NMS used in the particular experiment.

isolated rat bladder = experiment: Functional experiments using isolated rat bladder (carbachol-induced contraction); conditions: isolated rat bladder strips, carbachol concentration response curve, antagonist added 20 min prior
Protocol: Functional Experiments Using Isolated Rat Bladder:
Animals were euthanized by overdose of urethane and whole bladder was isolated and removed rapidly and placed in ice cold Tyrode buffer with the following composition (mMol/L) NaCl 137; KCl 2.7; CaCl2 1.8; MgCl2 0.1; NaHCO3 11.9; NaH2PO4 0.4; Glucose 5:55 and continuously gassed with 95% O2 and 5% CO2.
The bladder was cut into longitudinal strips (3 mm wide and 5-6 mm long) and mounted in 10 ml organ baths at 30° C., with one end connected to the base of the tissue holder and the other end connected to a polygraph through a force displacement transducer. Each tissue was maintained at a constant basal tension of 2 g and allowed to equilibrate for 1 hour during which the PSS was changed every 15 min. At the end of equilibration period the stabilization of the tissue contractile response was assessed with 1 μmol/L of Carbachol consecutively for 2-3 times. Subsequently a cumulative concentration response curve to carbachol (10-9 mol/L to 3×10^−5 mol/L) was obtained. After several washes, once the baseline was achieved, cumulative concentration response curve was obtained in presence of NCE (NCE added 20 min. prior to the second CRC).
The contractile results were expressed as % of control E max. ED50 values were calculated by fitting a non-linear regression curve (Graph Pad Prism). PKB values were calculated by the formula pKB=−log [(molar concentration of antagonist/(dose ratio−1))]
dose ratio=ED50 in the presence of antagonist/ED50 in the absence of antagonist.

M2 muscarinic receptor = molecular target: T2, M2 muscarinic receptor (Rattus norvegicus, UniProt P10980); experiment: Radioligand binding assay, [3H]-N-methylscopolamine, rat heart membranes; conditions: [3H]NMS, Ki by Cheng & Prusoff; for Ki: read-out: Receptor Binding Assay pKi M2 (converted)
T2 construct: from tissue; host or cells: rat heart membrane homogenate
T2 sequence (P10980 1-466): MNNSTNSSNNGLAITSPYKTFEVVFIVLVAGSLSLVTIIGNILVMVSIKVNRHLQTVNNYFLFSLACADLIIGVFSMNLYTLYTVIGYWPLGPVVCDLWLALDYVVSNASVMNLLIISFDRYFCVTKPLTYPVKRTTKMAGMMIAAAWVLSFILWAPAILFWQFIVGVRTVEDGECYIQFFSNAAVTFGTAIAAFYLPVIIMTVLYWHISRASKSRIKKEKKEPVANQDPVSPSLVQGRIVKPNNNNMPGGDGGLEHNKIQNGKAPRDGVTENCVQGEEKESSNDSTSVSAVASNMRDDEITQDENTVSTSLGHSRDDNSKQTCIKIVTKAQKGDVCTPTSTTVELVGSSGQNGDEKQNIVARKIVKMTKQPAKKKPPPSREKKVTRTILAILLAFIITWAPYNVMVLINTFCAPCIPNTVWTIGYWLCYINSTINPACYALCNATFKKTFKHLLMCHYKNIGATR
Protocol: as §1, §2, §3

T1 sequence (P08483 whole entry): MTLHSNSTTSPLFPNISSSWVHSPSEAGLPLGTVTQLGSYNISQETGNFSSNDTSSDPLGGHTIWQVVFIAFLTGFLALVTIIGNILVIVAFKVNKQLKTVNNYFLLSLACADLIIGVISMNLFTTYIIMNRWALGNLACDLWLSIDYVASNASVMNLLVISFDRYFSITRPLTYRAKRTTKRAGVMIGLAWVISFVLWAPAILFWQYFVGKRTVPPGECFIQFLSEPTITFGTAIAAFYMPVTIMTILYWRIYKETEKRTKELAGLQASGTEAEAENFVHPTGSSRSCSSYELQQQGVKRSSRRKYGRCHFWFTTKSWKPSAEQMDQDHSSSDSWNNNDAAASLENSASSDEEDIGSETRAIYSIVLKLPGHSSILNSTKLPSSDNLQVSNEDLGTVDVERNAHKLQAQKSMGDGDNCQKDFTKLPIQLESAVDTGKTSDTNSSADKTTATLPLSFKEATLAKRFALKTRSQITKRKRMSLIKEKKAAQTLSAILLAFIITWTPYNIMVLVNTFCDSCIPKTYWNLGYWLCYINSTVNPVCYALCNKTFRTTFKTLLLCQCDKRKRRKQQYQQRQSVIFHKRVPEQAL

| SMILES | Ki (M3 muscarinic receptor) [µM] | Functional Assay pKB (isolated rat bladder) | Ki (M2 muscarinic receptor) [µM] | Receptor Binding Assay pKi M3 (M3 muscarinic receptor) | Receptor Binding Assay pKi M2 (M2 muscarinic receptor) |
| --- | --- | --- | --- | --- | --- |
| O=C(NC1C2CN(Cc3cccs3)CC21)C(O)(c1ccccc1)C1CCCCC1 (stereo not drawn) [Compound No. 2, (1α, 5α, 6α)-N-[3-(2-Thienylmethyl)-3-azabicyclo[3.1.0]hex-6-yl]-2-hydroxy-2-cyclohexyl-2-phenylacetamide] | 0.129 | 7.52 | 3.16 | – | – |
| O=C(NC1C2CN(Cc3cccs3)CC21)C(O)(c1ccccc1)C1CCCC1 (stereo not drawn) [Compound No. 3, (1α, 5α, 6α)-N-[3-(2-thienylmethyl)-3-azabicyclo[3.1.0]hex-6-yl]-2-hydroxy-2-cyclopentyl-2-phenylacetamide] | 0.525 | 8.04 | 3.98 | – | – |
| O=C(NC1C2CN(CCc3ccc(Cl)cc3)CC21)C(O)(c1ccccc1)C1CCCC1 (stereo not drawn) [Compound No. 17, (1α, 5α, 6α)-N-[3-(4-chlorophenethyl)-3-azabicyclo[3.1.0]hex-6-yl]-2-hydroxy-2-cyclopentyl-2-phenylacetamide] | 0.0794 | 7.02 | 0.501 | – | – |
| O=C(NC1C2CN(CCCc3ccccc3)CC21)C(O)(c1ccccc1)C1CCCC1 (stereo not drawn) [Compound No. 19, (1α, 5α, 6α)-N-[3-(3-phenylpropyl)-3-azabicyclo[3.1.0]hex-6-yl]-2-hydroxy-2-cyclopentyl-2-phenylacetamide] | 0.776 | 7.52 | 2.63 | – | – |
| CC(c1ccccc1)N1CC2C(C1)C2NC(=O)C(O)(c1ccccc1)C1CCCC1 (stereo not drawn) [Compound No. 21, (1α, 5α, 6α)-N-[3-(1-phenylethyl)-3-azabicyclo[3.1.0]hex-6-yl]-2-hydroxy-2-cyclopentyl-2-phenylacetamide] | 0.0251 | 8.2 | 0.631 | – | – |
| Cc1ccc(C(C)N2CC3C(C2)C3NC(=O)C(O)(c2ccccc2)C2CCCC2)cc1 (stereo not drawn) [Compound No. 43, (1α, 5α, 6α)-N-[3-[1-(4-methylphenyl)ethyl]-3-azabicyclo[3.1.0]hex-6-yl]-2-hydroxy-2-cyclopentyl-2-phenylacetamide] | 0.0589 | 6.86 | 1.23 | – | – |
| Cc1ccc(CCN2CC3C(C2)C3NC(=O)C(O)(c2ccccc2)C2CCCC2)cc1C (stereo not drawn) [Compound No. 50] | 0.0437 | 7.48 | 0.813 | – | – |
| CC(c1ccccc1)N1CC2C(C1)C2NC(=O)C(O)(c1ccccc1)C1CCCCC1 (stereo not drawn) [Compound No. 58, (1α, 5α, 6α)-N-[3-[1-(phenyl)ethyl]-3-azabicyclo [3.1.0]hex-6-yl]-2-hydroxy-2-cyclohexyl-2-phenylacetamide] | 0.00589 | 7.89 | 0.155 | – | – |
| COC(=O)c1ccc(CCN2CC3C(C2)C3NC(=O)C(O)(c2ccccc2)C2CCCC2)cc1 (stereo not drawn) [Compound No. 66, (1α, 5α, 6α)-N-[3-(2-(4-methoxycarbonyl)phenyl)ethyl-3-azabicyclo[3.1.0]hex-6-yl]-2-hydroxy-2-cyclopentyl-2-phenylacetamide] | 0.0437 | 7.67 | 0.537 | – | – |
| O=C(N[C@H]1[C@@H]2CN(CCc3ccc(CO)cc3)C[C@@H]21)C(O)(c1ccccc1)C1CCCC1 (stereo partly drawn) [Compound No. 71, (1α, 5α, 6α)-N-[3-(4-hydroxymethylphenethyl)-3-azabicyclo [3.1.0]-hex-6-yl]-2-hydroxy-2-cyclopentyl-2-phenylacetamide] | – | 6.8 | – | 7.37 -log M (pKi, unitless) | 6.01 |
| CC(c1ccccc1)N1C[C@@H]2[C@H](C1)[C@H]2NC(=O)C(O)(c1ccccc1)C1CCCCCC1 (stereo partly drawn) [Compound No. 81, (1α, 5α, 6α)-N-[3-(1-phenylethyl)-3-azabicyclo[3.1.0]-hex-6-yl]-2-hydroxy-2-cycloheptyl-2-phenylacetamide] | – | 7.89 | – | 8.62 -log M (pKi, unitless) | 7.27 |
| O=C(NC1C2CN(Cc3ccccc3)CC21)C(Cl)(c1ccccc1)C1CCCCC1 (stereo not drawn) [Compound No. 115, (1α, 5α, 6α)-N-[3-benzyl-3-azabicyclo[3.1.0]-hex-6-yl]-2-chloro-2-cyclohexyl-2-phenylacetamide] | > 1 | 5.45 | > 1 | – | – |
| O=C(NC1C2CN(Cc3ccccc3)CC21)C(c1ccccc1)C1CCCCC1 (stereo not drawn) [Compound No. 116, (1α, 5α, 6α)-N-[3-benzyl-3-azabicyclo[3.1.0]-hex-6-yl]-2-cyclohexyl-1-2-phenylacetamide] | > 1 | 6.03 | > 1 | – | – |
| O=C(NC1C2CN(Cc3ccccc3)CC21)C(O)c1ccccc1 (stereo not drawn) [Compound No. 117, (1α, 5α, 6α)-N-[3-benzyl-3-azabicyclo[3.1.0]-hex-6-yl]-2-hydroxy-2-phenylacetamide] | > 1 | 5.08 | > 1 | – | – |
| CC(C)=CCCN1CC2C(C1)C2N(C)C(=O)C(O)(c1ccccc1)C1CCCC1 (stereo not drawn) [Compound No. 125, N-methyl-N-(1α, 5α, 6α)-N-[3-(4-methyl-3-pentenyl)-3-azabicyclo[3.1.0]-hex-6-yl]-2-cyclopentyl-2-hydroxy-2-phenylacetamide] | 0.0263 | 8.36 | 0.0245 | – | – |
